Read-outs that look alike come from different tables or passages of the source.
Columns and labels:
[1] = test system: brain monoamine metabolites; test: Increasing effect on concentration of brain monoamine metabolites; assay type: in vivo, mice (Std-ddy strain); conditions: Mus musculus, 2 h, non-dosed=100
Procedure: A group of 5 male mice (Std-ddy strain, 25-30 g) was used for examining effect of the test compounds on concentration of brain monoamine metabolites.
Mice were killed by decapitation 2 hours after treatment with the test compounds. Brains were quickly taken out, homogenized in 1N formic acid-acetone solution, and centrifuged in a refrigerated ultracentrifuge. The supernatant was evaporated by blowing with N2 gas. Then, the residue was again resolved in 0.01 N acetic acid, and served for determining concentration of dopamine metabolites, 3,4-dihydroxyphenylacetic acid (DOPAC) and homovanillic acid (HVA), a norepinephrine metabolite, 3-methyl-4-hydroxyphenylethylene glycol (MOPEG), and a serotonin metabolite, 5-hydroxyindole-3-acetic acid (5-HIAA) concentrations by HPLC with electrochemical detection. The effect of the test compounds on concentration of each monoamine metabolite is shown as % of control (level of non-dosed animals=100) in Table 4.

[2] = test system: apomorphine-induced vomiting; test: Antagonistic effect on apomorphine-induced vomiting; assay type: in vivo, dogs (Beagle); conditions: Canis lupus familiaris, sc, apomorphine 0.3 mg/kg s.c. 2 h after compound, read-out: Inhibitory ratio (apomorphine-induced vomiting)
Procedure: A group of 3-4 dogs (Beagle, 8-15 kg) was used for examining effects on the test compounds on apomorphine-induced vomiting, a known test for evaluating neuroleptic drugs.
Each dog was given a subcutaneous injection of apomorphine hydrochloride (0.3 mg/kg) two hours after the treatment of the test compounds. Then, the frequency of oral vomiting was counted for one hour. The mean counts of the compound-treated group were compared with those of the corresponding control (non-dosed) group, and the percent inhibition was calculated.

[3] = read-out: 5-HIAA concentration, % of control
[4] = read-out: DOPAC concentration, % of control
[5] = read-out: HVA concentration, % of control
[6] = read-out: MOPEG concentration, % of control

| SMILES | response vs control in vivo at 10 mg/kg [1, 4] | response vs control in vivo at 10 mg/kg [1, 5] | further results |
| --- | --- | --- | --- |
| OCCN1CCN(c2cc(-c3ccccc3)c3c(n2)CCCCC3)CC1 [Example 24] | 290% | 317% | response vs control in vivo at 10 mg/kg [1, 3]: 150%; response vs control in vivo at 10 mg/kg [1, 6]: 139% |
| OCCN1CCN(c2cc(-c3ccc(F)cc3)c3c(n2)CCCCC3)CC1 [Example 26] | 344% | 263% |  |
| CCN1CCN(c2cc(-c3cccc(F)c3)c3c(n2)CCCCC3)CC1 [Example 27] | 208% | 193% | inhibition in vivo at 3 mg/kg [2]: 47% |
| CCN1CCN(c2cc(-c3ccccc3F)c3c(n2)CCCCC3)CC1 [Example 29] | 296% | 274% | inhibition in vivo at 3 mg/kg [2]: 63% |
| Cc1ccc(-c2cc(N3CCN(CCO)CC3)nc3c2CCCCC3)cc1 [Example 35] | 165% | 170% |  |
| OCCN1CCN(c2cc(-c3ccc(F)cc3)c3c(n2)CCCCCC3)CC1 [Example 37, 2-[4-(2-Hydroxyethyl)-1-piperazinyl]-4-(4-fluorophenyl)-5,6,7,8,9,10-hexahydrocycloocta[b]pyridine] |  |  | inhibition in vivo at 0.3 mg/kg ([2]; dose 0.3 mg/kg): 80%; response vs control in vivo at 3 mg/kg [1, 3]: 95%; response vs control in vivo at 3 mg/kg [1, 4]: 268%; response vs control in vivo at 3 mg/kg [1, 5]: 203%; response vs control in vivo at 3 mg/kg [1, 6]: 143% |
| Fc1ccc(-c2cc(N3CCN(C4CCCCC4)CC3)nc3c2CCCCCC3)cc1 [Example 39] | 307% | 233% | response vs control in vivo at 10 mg/kg [1, 3]: 97%; response vs control in vivo at 10 mg/kg [1, 6]: 117% |
| CCN1CCN(c2cc(-c3cccc(F)c3)c3c(n2)CCCCCC3)CC1 [Example 42] | 258% | 211% |  |
| CCN1CCN(c2cc(-c3ccccc3F)c3c(n2)CCCCCC3)CC1 [Example 43] |  |  | inhibition in vivo at 1 mg/kg ([2]; dose 1.0 mg/kg): 96% |
| CCN1CCN(c2cc(-c3ccc(Cl)cc3)c3c(n2)CCCCCC3)CC1 [Example 44] | 272% | 210% |  |
| CCN1CCN(c2cc(-c3cccc(Cl)c3)c3c(n2)CCCCCC3)CC1 [Example 46] | 296% | 235% |  |
| CCN1CCN(c2cc(-c3ccc(OC)cc3)c3c(n2)CCCCCC3)CC1 [Example 49, 2-(4-Ethyl-1-piperazinyl)-4-(4-methoxyphenyl)-5,6,7,8,9,10-hexahydrocycloocta[b]pyridine] | 197% | 195% |  |
| Cc1ccc(-c2cc(N3CCN(CCO)CC3)nc3c2CCCCCC3)cc1 [Example 52] | 233% | 216% |  |
| CCN1CCN(c2cc(-c3ccc(F)c(F)c3)c3c(n2)CCCCCC3)CC1 [Example 54] |  |  | response vs control in vivo at 2 mg/kg [1, 4]: 251%; response vs control in vivo at 2 mg/kg [1, 5]: 250% |
| CCN1CCN(c2cc(-c3c(F)cccc3F)c3c(n2)CCCCCC3)CC1 [Example 55] |  |  | response vs control in vivo at 2 mg/kg [1, 4]: 379%; response vs control in vivo at 2 mg/kg [1, 5]: 240% |
